Measured values from ChEMBL document CHEMBL5291721, “A preclinical secondary pharmacology resource illuminates target-adverse drug reaction associations of marketed drugs” (Nat Commun, 2023).

What was measured:
[1] = target: T1, Cholecystokinin receptor type A (Homo sapiens, UniProt P32238)
T1 sequence (P32238 whole entry): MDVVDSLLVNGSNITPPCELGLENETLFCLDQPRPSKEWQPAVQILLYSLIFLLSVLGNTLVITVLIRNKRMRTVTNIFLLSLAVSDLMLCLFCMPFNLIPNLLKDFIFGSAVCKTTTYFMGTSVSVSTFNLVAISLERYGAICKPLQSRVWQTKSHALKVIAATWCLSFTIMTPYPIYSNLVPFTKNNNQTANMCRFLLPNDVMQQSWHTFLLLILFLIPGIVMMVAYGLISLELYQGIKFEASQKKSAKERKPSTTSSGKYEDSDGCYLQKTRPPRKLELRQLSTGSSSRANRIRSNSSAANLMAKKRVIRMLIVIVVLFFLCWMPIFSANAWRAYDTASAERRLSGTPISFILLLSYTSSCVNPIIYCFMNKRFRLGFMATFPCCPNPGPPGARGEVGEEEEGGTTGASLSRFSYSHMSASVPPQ

[2] = target: T2, Amine oxidase [flavin-containing] A (Homo sapiens, UniProt P21397); assay type: functional
T2 sequence (P21397 whole entry): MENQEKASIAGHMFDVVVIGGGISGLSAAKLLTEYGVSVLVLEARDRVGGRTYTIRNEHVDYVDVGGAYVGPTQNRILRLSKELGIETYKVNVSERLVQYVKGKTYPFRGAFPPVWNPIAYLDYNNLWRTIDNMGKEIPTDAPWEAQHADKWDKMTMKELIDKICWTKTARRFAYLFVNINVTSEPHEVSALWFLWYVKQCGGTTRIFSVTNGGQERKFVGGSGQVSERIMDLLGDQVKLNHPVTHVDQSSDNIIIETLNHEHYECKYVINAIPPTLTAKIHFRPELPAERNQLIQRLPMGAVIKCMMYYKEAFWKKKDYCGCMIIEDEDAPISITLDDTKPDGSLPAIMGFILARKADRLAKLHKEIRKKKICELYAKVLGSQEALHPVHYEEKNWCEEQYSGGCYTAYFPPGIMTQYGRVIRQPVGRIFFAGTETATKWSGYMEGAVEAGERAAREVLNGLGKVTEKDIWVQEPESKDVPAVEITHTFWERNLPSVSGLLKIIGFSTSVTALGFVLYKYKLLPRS

[3] = target: Glutamate receptor ionotropic, NMDA 1 (Rattus norvegicus, UniProt P35439)
Vasopressin V2 receptor = Vasopressin V2 receptor (Homo sapiens, UniProt P30518)
Chain of Vasopressin V2 receptor (P30518 whole entry): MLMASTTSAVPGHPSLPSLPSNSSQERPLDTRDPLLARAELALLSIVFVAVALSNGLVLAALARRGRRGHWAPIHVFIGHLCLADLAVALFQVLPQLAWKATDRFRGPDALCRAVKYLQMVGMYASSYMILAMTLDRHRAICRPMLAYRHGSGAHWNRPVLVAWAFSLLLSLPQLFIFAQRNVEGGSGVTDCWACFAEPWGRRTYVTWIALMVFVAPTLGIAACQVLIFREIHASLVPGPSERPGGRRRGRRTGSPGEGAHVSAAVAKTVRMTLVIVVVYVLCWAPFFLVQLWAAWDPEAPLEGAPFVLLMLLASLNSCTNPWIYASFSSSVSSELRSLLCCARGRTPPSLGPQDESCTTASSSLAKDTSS

[4] = target: T3, Neuropeptide Y receptor type 1 (Homo sapiens, UniProt P25929)
T3 sequence (P25929 whole entry): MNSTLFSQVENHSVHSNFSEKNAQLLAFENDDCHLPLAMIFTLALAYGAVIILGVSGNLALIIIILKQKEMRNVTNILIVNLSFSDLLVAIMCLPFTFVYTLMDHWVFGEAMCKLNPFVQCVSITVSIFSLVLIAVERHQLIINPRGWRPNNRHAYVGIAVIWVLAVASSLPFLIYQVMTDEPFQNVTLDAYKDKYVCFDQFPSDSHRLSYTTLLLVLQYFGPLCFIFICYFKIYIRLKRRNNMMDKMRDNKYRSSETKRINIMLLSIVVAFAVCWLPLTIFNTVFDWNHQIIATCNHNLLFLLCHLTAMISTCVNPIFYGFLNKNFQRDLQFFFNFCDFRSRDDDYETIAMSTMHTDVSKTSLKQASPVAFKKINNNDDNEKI

[5] = target: Beta-2 adrenergic receptor (Homo sapiens, UniProt P07550)
Chain of Beta-2 adrenergic receptor (P07550 whole entry): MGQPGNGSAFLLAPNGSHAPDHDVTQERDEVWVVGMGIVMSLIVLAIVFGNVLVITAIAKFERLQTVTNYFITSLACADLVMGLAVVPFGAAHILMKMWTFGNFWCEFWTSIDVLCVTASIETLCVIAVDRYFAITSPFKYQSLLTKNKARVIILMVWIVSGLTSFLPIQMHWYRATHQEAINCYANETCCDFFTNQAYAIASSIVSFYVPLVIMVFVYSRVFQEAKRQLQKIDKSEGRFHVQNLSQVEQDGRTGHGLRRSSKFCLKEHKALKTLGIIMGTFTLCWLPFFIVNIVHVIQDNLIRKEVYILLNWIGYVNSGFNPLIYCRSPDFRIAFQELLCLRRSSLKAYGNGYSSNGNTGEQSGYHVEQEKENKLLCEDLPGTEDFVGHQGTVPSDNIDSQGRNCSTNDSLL

Melanocortin receptor 3 = Melanocortin receptor 3 (Homo sapiens, UniProt P41968)
Chain of Melanocortin receptor 3 (P41968 whole entry): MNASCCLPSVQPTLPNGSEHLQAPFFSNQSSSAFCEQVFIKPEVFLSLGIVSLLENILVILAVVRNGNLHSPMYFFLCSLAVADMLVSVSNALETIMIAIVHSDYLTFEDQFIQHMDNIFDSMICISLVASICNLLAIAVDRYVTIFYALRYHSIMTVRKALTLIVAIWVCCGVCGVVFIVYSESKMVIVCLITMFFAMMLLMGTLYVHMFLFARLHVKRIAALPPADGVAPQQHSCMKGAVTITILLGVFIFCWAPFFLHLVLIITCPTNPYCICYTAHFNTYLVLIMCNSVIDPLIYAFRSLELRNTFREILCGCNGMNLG

[6] = target: Sodium-dependent dopamine transporter (Homo sapiens, UniProt Q01959)
Chain of Sodium-dependent dopamine transporter (Q01959 whole entry): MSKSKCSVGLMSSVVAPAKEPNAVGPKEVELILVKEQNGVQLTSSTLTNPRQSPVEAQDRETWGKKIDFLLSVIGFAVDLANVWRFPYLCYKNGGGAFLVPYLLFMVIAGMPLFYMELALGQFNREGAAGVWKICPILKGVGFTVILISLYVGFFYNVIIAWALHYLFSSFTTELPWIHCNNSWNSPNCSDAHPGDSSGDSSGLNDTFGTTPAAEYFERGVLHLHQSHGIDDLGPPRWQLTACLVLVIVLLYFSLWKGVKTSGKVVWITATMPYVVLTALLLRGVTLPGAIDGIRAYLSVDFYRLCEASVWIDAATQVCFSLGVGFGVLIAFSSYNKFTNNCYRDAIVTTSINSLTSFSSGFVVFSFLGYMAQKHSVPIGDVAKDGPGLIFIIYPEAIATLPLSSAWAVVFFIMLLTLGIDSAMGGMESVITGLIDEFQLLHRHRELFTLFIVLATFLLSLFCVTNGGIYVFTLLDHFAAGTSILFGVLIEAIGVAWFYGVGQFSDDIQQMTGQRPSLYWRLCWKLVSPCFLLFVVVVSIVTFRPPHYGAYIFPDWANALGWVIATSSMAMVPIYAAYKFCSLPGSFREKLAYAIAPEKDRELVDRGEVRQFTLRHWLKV

[7] = target: T4, 5-hydroxytryptamine receptor 2C (Homo sapiens, UniProt P28335)
T4 sequence (P28335 whole entry): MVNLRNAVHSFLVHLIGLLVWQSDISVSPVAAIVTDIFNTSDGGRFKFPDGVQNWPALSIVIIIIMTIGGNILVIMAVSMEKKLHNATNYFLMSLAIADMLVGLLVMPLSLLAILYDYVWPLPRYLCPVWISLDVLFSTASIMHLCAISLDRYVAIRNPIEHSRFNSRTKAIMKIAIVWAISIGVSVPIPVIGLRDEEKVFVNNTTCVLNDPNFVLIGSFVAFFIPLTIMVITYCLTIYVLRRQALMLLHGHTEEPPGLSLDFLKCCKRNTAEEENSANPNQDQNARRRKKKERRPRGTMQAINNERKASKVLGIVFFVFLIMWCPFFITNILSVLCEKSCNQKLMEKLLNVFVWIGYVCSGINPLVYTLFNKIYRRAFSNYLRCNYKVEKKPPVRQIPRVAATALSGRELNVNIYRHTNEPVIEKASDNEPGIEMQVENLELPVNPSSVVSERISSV

[8] = target: T5, Alpha-2A adrenergic receptor (Homo sapiens, UniProt P08913); assay type: functional, cell-based
T5 sequence (P08913 whole entry): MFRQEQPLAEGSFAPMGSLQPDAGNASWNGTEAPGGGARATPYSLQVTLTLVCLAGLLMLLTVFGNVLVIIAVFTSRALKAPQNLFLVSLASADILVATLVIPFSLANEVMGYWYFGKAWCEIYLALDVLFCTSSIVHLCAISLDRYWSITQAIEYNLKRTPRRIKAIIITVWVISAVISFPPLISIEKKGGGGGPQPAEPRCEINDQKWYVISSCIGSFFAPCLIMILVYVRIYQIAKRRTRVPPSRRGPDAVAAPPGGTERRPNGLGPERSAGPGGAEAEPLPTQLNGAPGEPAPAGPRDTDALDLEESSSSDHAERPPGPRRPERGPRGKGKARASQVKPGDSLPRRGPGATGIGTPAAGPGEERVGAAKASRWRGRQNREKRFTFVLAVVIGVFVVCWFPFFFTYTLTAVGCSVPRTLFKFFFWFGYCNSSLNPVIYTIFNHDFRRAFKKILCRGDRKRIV
Also: assay procedure not described here.

Row | Compound | AC50 [1] [µM] | AC50 [2] [µM] | AC50 [3] [µM] | AC50 (Vasopressin V2 receptor) [µM] | AC50 [4] [µM] | AC50 [5] [µM] | AC50 (Melanocortin receptor 3) [µM] | AC50 [6] [µM] | AC50 [7] [µM] | AC50 [8] [µM]
1 | C[C@](N)(Cc1ccc(O)c(O)c1)C(=O)O [METHYLDOPA] | > 10 | > 10 | > 10 | > 10 | > 10 | > 10 | > 10 | > 10 | > 30 | > 10
2 | C#C[C@]1(O)CC[C@H]2[C@@H]3CCc4cc(OC5CCCC5)ccc4[C@H]3CC[C@@]21C [QUINESTROL] | > 10 | > 10 | > 10 | > 10 | > 10 | > 10 | > 10 | > 10 | > 30 | > 10
3 | C[C@]1(O)CC[C@H]2[C@@H]3CCC4=CC(=O)CC[C@]4(C)[C@@]3(F)[C@@H](O)C[C@@]21C [FLUOXYMESTERONE] | > 10 | > 30 | > 10 | > 10 | > 10 | > 10 | > 10 | > 10 | > 30 | > 10
4 | C[C@H](N)[C@H](O)c1cccc(O)c1 [METARAMINOL] | > 10 | > 10 | > 10 | > 10 | > 10 | > 30 | > 10 | > 10 | > 30 | > 10
5 | Cc1ccc(S(=O)(=O)NC(=O)NN2CC3CCCC3C2)cc1 (centres undefined) [GLICLAZIDE] | > 10 | > 30 | > 10 | > 10 | > 10 | > 10 | > 10 | > 10 | > 30 | > 10
6 | CO[C@@H]1[C@@H](O[C@@H]2O[C@H](C)[C@@H](O[C@H]3C[C@@](C)(O)[C@@H](OC(=O)CC(C)C)[C@H](C)O3)[C@H](N(C)C)[C@H]2O)[C@@H](CC=O)C[C@@H](C)[C@@H](O)/C=C/C=C/C[C@@H](C)OC(=O)C[C@H]1OC(C)=O [JOSAMYCIN] | > 10 | > 10 | > 10 | > 10 | > 10 | > 10 | > 10 | > 10 | > 30 | > 10
7 | O=C(NCCN1CCOCC1)c1ccc(Cl)cc1 [MOCLOBEMIDE] | > 10 |  | > 10 | > 10 | > 10 | > 10 | > 10 | > 10 | > 30 | > 10
8 | C=CCC1(CC(C)C)C(=O)NC(=O)NC1=O [BUTALBITAL] | > 10 | > 30 | > 10 | > 10 | > 10 | > 10 | > 10 | > 10 | > 30 | > 10
9 | C[C@]12CC[C@H]3[C@@H](CCC4=CC(=O)CC[C@@]43C)[C@@H]1CC[C@@H]2O [TESTOSTERONE] | > 10 | > 10 | > 10 | > 10 | > 10 | > 10 | > 10 | > 10 | > 30 | > 10
